Read-outs that look alike come from different tables or passages of the source. One block for each molecule: values may come before it.
How the values were obtained:
[1] = Displacement of adsorbed payload molecule from discrete carbon nanotubes by later addition of PVOH; format: physicochemical
[2] = in water, cited from earlier work
[3] = not given; remark: listed apart in the source

Molecule: CCOP(=O)(Cc1ccc(OC)cc1)OCC [D4MBP]
D4MBP originally residing on the outermost wall displaced by the PVOH, estimated ([1]; Example 10, calculation as in Example 1): about 80%

Molecule: NC(=O)CC[C@@H]1NC(=O)[C@H](Cc2ccccc2)NC(=O)[C@H](Cc2ccc(O)cc2)NC(=O)CCSSC[C@@H](C(=O)N2CCC[C@H]2C(=O)N[C@H](CCCN=C(N)N)C(=O)NCC(N)=O)NC(=O)[C@H](CC(N)=O)NC1=O [Desmopressin]
Hydrodynamic Radius [2]: 0.88 nm

adsorbed niacin released by subsequent addition of PVOH ([1]; Example 4: PVOH added after niacin adsorption equilibrium, weight ratio 0.23 PVOH:1 discrete carbon nanotubes): 25 % wt. | ratio of niacin adsorbed internally versus externally (times less internally) (Example 1, assumes same adsorption concentration on both walls): about 2.4 times | niacin adsorbed, less than in Example 1 (Example 3 (PVOH added at the same time) versus Example 1 (no PVOH)): ~30% | reduction of the amount of niacin adsorbed on the discrete carbon nanotubes after sodium hydroxide addition ([3]; Example 7: PVOH-encapsulated, 2 ml 0.1 Molar sodium hydroxide, overall period 40 + 55 + 110 minutes, pH about 4.2 to 8): about 42%
Molecule: O=C(O)c1cccnc1 [Niacin, Pyridine-3-carboxylic acid]
amount of niacin adsorbed after 5 hours (Example 2: nanotubes with 0.05% weight oxidized species, otherwise as Example 1): 0.088 g niacin/g discrete carbon nanotubes | concentration of adsorbed niacin after a further 85 minutes (Example 5: nanotubes pretreated with PVOH about 20 hours, then niacin added, 100 + 85 minutes): 0.0226 g niacin/g of discrete carbon nanotubes | final adsorption of niacin after sodium hydroxide addition ([3]; Example 6: no PVOH, 2 ml 0.1 molar sodium hydroxide added after equilibrium, pH from about 4 to about 7.3, about 180 minutes): 0.03 g niacin/g discrete carbon nanotubes | equilibrium niacin concentration on discrete carbon nanotubes before pH increase ([3]; Example 7: niacin then PVOH, PVOH to discrete carbon nanotubes 0.3:1 by weight): 0.0476 g niacin/g discrete carbon nanotubes | Hydrodynamic Radius [2]: 0.33 nm

Molecule: CN1CCCC1c1cccnc1 (centres unmarked) [Nicotine]
Hydrodynamic Radius [2]: 0.38 nm

Molecule: Bovine serum albumin
Hydrodynamic Radius [2]: 7.0 nm | Hydrodynamic Radius ([2]; listed as bovine serum albumin): 7 nm

Molecule: Cytochrome C
Hydrodynamic Radius [2]: 2.64 nm

Molecule: Insulin
Hydrodynamic Radius [2]: 2.1 nm

B1: Myoglobin (protein, UniProt P68082 2-154, looked up)
Myoglobin: GLSDGEWQQVLNVWGKVEADIAGHGQEVLIRLFTGHPETLEKFDKFKHLKTEAEMKASEDLKKHGTVVLTALGGILKKKGHHEAELKPLAQSHATKHKIPIKYLEFISDAIIHVLHSKHPGDFGADAQGAMTKALELFRNDIAAKYKELGFQG
Hydrodynamic Radius [2]: 3.34 nm

Reference: US10086086B2, “Payload molecule delivery using molecular rebar” (Molecular Rebar Design, LLC, priority 2014, dated 2018)
